From US20080275133A1, “Local Administration of Retinoids to Treat Deficiencies in Dark Adaptation” (University Of Calfornia-San Francisco, priority 2004, published 2008)
Like-named read-outs stand apart in the source and are kept apart here.

Legend:
Dark adaptation = conditions: for Night driving ability: one week later
Procedure: A patient complains of difficulty driving at night, especially in going from a well-lit to a poorly-illuminated environment. […] One cc of Vitamin A and/or one of its visual pigment derivatives in a sustained release suspension is injected retrobulbarly on both sides. […] Six months later, the retrobulbar injections are repeated.
A patient complains of difficulty driving at night, especially in going from a well-lit to a poorly-illuminated environment. […] The patient has a cataract in the right eye and cataract surgery with an intraocular lens is performed. At the time of surgery, a small pellet of concentrated vitamin A and/or one of its visual pigment derivatives is placed in the eye for sustained release.

[1] = system: Dark adaptation abnormalities; conditions: Sorsby's fundus dystrophy patients, high dose oral, for as little as 1 week; cited from earlier work
[2] = chronic high dose oral (liver damage, osteoporosis, promotion of lung cancer in smokers); cited from earlier work
[3] = cited from earlier work

For CC1=C(/C=C/C(C)=C/C=C/C(C)=C/CO)C(C)(C)CCC1 [Vitamin A, (2E,4E,6E,8E)-3,7-dimethyl-9-(2,6,-trimethylcyclohex-1-en-1-yl)nona-2,4,6,8-tetraen-1-ol], the Night driving ability (Dark adaptation; Example 1: patient, one cc sustained release suspension retrobulbarly on both sides) was “drives without difficulty at night”, the Night driving ability (Dark adaptation; Example 2: patient, small sustained release pellet placed in the eye at cataract surgery) was “drives without difficulty at night” and the “Duration of delivery in effective concentrations to the retina” value (Dark adaptation; human, in vivo) was 0.5-3 years. For the same compound, the Dark adaptation abnormalities [1] was “rapidly normalize” and the Systemic toxicity [2] was “associated systemic toxicity”.

In the case of CC1=C(/C=C/C(C)=C/C=C/C(C)=C/C(=O)O)C(C)(C)CCC1 [all-trans-retinoic acid, retinoic acid], the “Photostability with BCD inclusion complex” value ([3]; beta cyclodextrin inclusion complex formation (Lin et al., 2000)) is given as “increase the photostability”.

For CC1=C(/C=C/C(C)=C/C=C/C(C)=C/C=O)C(C)(C)CCC1 [retinal], the “Shielding from oxygen by BCD inclusion complex” value ([3]; beta cyclodextrin inclusion complex (Lerner et al., 1989)) is given as “can shield retinal from oxygen”.
